Legend:
Format in all cases: cell-based, human
DSC3 = test: Cell-cell junction, qRT-PCR for desmocollin (DSC3); conditions: keratinocytes treated overnight; KGM = 100
Description: (§1) Tight Junctions are the closely associated areas of two cells whose membranes join together forming a virtually impermeable barrier to fluid. A desmosome is a cell structure specialized for cell-to-cell adhesion. A type of junction complex, they are localized spot-like adhesions randomly arranged on the lateral sides of plasma membranes. Desmosomes are molecular complexes of cell adhesion proteins and linking proteins that attach the cell surface adhesion proteins to intracellular keratin cytoskeletal filaments.
(§2) The cell adhesion proteins of the desmosome, desmoglein (DSG) and desmocollin (DSC), are members of the cadherin family of cell adhesion molecules. They are biomarker of skin tight junctions. In particular, DSG1 is a biomarker for cell binding, the higher the expression, the better skin cell-cell junction and the better skin barrier function will be. DSC3 is a protein in humans that is encoded by the DSC3 gene, the higher the expression, the better skin cell-cell junction and the better skin barrier function will be.
(§3) In the present method, keratinocytes were treated with the sample compositions in a 6-well plate overnight. After washing with cold phosphate-buffered saline (PBS), total RNAs were prepared from each well. Real-Time Quantitative Reverse Transcription PCR (qRT-PCR) was performed to detect the target genes ([…]) expression level using a One-step TaqMan® RT-PCR kit (Life Technologies).
(§4) Samples containing various amounts of acetyl hexapeptide-38 and/or acetyl hexapeptide-46 were tested for cell-cell junction, as described above. Solution of Vitamin D3 and keratinocyte growth medium (KGM) were used for comparison. The results are summarized in Tables 3-4 below, and graphically represented in FIGS. 3-4. It can be seen that compositions containing acetyl hexapeptide-38 and/or acetyl hexapeptide-46 enhanced cell-cell junction when compared to Vitamin D3 and KGM.

DSG1 = test: Cell-cell junction, qRT-PCR for desmoglein (DSG1); conditions: keratinocytes treated overnight; KGM = 100
Description: as §1, §2, §3, §4

IL-8 = IL-8 ELISA (Part 1, Quantikine kit), surfactant-induced irritation; conditions: for IL-8 secreted: human dermal keratinocytes co-treated with surfactant mixture (sodium laureth sulfate + polyquaternium-10), Control B = 100%, Control A = 0%; for Reduction of IL-8 Secretion Compared to Control B: subtracting from 100% for Control B
Description: Interleukin 8 (IL-8) is a chemokine and proinflammatory cytokine produced by macrophages and other cell types such as epithelial cells. It is secreted from keratinocytes in skin in response to inflammatory stimuli. IL-8 is secreted and is an important mediator of the immune reaction in the innate immune system response. IL-8 overexpressed is a biomarker of skin irritation.
For Control A, human dermal keratinocytes are left untreated. No irritation is expected, and therefore Control A provides a baseline. For Control B, IL-8 is induced in human dermal keratinocytes by applying a surfactant mixture that is a combination of sodium laureth sulfate and polyquaternium-10. For all other samples, the human dermal keratinocytes are co-treated with the surfactant mixture and a composition containing the ingredient of interest. Decreased Il-8 expression reflects the ingredient's anti-irritation activity.
In order to carry out the test method, an assay kit was employed that was obtained from R&D Systems: Human CXCL8/IL-8 Quantikine ELISA Kit.
The following steps were followed: 1. Bring all reagents and samples to room temperature before use. 2. Prepare all reagents, standard dilutions, and samples. 3. Remove excess microplate strips from the plate frame, return them to the foil pouch containing the desiccant pack, and reseal. 4. Add 100 μL of Assay Diluent to each well. 5. Add 50 μL of Standard, control, or sample to each well. Cover with a plate sealer, and incubate at room temperature for 2 hours. 6. Aspirate each well and wash, repeating the process 3 times for a total of 4 washes. 7. Add 100 μL of Conjugate to each well. Cover with a new plate sealer, and incubate at room temperature for 1 hour. 8. Aspirate and wash 4 times. 9. Add 200 μL Substrate Solution to each well. Incubate at room temperature for 30 minutes, making sure to protect the wells from the light. 10. Add 50 μL of Stop Solution to each well. The liquid was removed from the well and, using a colorimeter, absorbance was measured at 450 nanometers (nm) within 30 minutes. Wavelength correction was set to 540 nm or 570 nm.
The samples were tested for IL-8 secretion as described in the test method above. That is, for Control A, human dermal keratinocytes were left untreated. For Control B, IL-8 a surfactant mixture that was a combination of sodium laureth sulfate and polyquaternium-10. For all other samples, the human dermal keratinocytes were co-treated with the surfactant mixture and a composition containing the ingredient of interest. Decreased 11-8 expression reflects the ingredient's anti-irritation activity. The results are summarized in Table 2 and shown graphically in FIG. 1.
The amount of the reduction in IL-8 secretion for the test samples (subtracting from 100% for Control B) is summarized in Table 2 and shown graphically in FIG. 2. It can be seen that the combination of acetyl hexapeptide-46 and acetyl hexapeptide-38 produce an enhanced reduction in IL-8 secretion, particularly for the higher concentrations.

APQ3 = test: Skin water channel biomarker: APQ3 expression; conditions: FIG. 10
Description: FIG. 5 is a graphical representation of the effect of various compositions on the irritation response of cells treated with known irritants, as quantified by measuring IL-8 secretion, and on cell viability. FIG. 6 is a graphical representation of Involucrin Expression—Keratinocytes (KC) differentiation. FIG. 7 is a graphical representation of PPARδ expression—ceramides related biomarker. FIG. 8 is a graphical representation of ABCA12 expression—fatty acid related biomarker. FIG. 9 is a graphical representation of DSC1 expression—cell-cell junction biomarker. FIG. 10 is a graphical representation of APQ3 expression—skin water channel.
An in vitro model was employed, using monolayer human dermal keratinocytes culture (KGM). Two controls were tested: the medium and inflammatory cytokines interleukin (IL-1b).
Skin Barrier Biomarkers: ABCA12, Involucrin, PPARδ. Different concentrations of ingredients were used to treat the keratinocyte for 24 hours. Cells were collected and total RNA prepared from the treated cells. Real-time RT-PCT was used to detect different barrier function related biomarker's gene expression level. Comparative Benchmark: Vitamin D3 (cholecalciferol) in three different concentrations.

Row | Compound | DSC3 % (DSC3) | IL-8 secreted (IL-8) | Reduction of IL-8 Secretion Compared to Control B (IL-8) | further results
1 | Acetyl hexapeptide-46 [Example 3F] | 265% | – | – | DSG1 % (DSG1): 199%
2 | acetyl hexapeptide-38 [Example 1G] | – | 57.20% | 42.80% | –
3 | acetyl hexapeptide-38 [Example 1B] | – | 71.70% | 28.30% | –
4 | acetyl hexapeptide-46 [Example 2C] | – | 65.60% | 34.40% | –
5 | Acetyl hexapeptide-38 [Example 3A] | 160% | – | – | –
6 | acetyl hexapeptide-46 | – | – | – | APQ3 expression in KC (in words) (APQ3): does not individually stimulate APQ3 expression; effect on IL-8 secretion compared to Control B (in words) (IL-8): reduce the IL-8 secretion
7 | acetyl hexapeptide-38 | – | – | – | effect on IL-8 secretion compared to Control B (in words) (IL-8): reduce the IL-8 secretion
8 | acetyl hexapeptide-46 [Example 2G] | – | −6.90% | 106.90% | –
9 | C=C1CC[C@H](O)C/C1=C/C=C1\CCC[C@]2(C)[C@@H]([C@H](C)CCCC(C)C)CC[C@@H]12 [VitD3, cholecalciferol, reference compound] | 109% | – | – | DSG1 % (DSG1): 65%
10 | Acetyl hexapeptide-38 [Example 3B] | 205% | – | – | DSG1 % (DSG1): 144%
11 | Acetyl hexapeptide-38 [Example 3C] | 210% | – | – | DSG1 % (DSG1): 178%
12 | acetyl hexapeptide-46 [Example 2A] | – | 27.10% | 72.90% | –
13 | Acetyl hexapeptide-46 [Example 3D] | 230% | – | – | –
14 | Acetyl hexapeptide-46 [Example 3E] | 377% | – | – | DSG1 % (DSG1): 162%
15 | acetyl hexapeptide-38 [Example 1A] | – | 69.60% | 30.40% | –
16 | acetyl hexapeptide-46 [Example 2D] | – | 78.20% | 21.80% | –
17 | acetyl hexapeptide-38 [Example 1D] | – | 95.80% | 4.20% | –
18 | acetyl hexapeptide-38 [Example 1C] | – | 84.90% | 15.10% | –
19 | acetyl hexapeptide-46 [Example 2B] | – | 50.90% | 49.10% | –
